Reference: publication PMC8041284, “Tunable Methacrylamides for Covalent Ligand Directed Release Chemistry” (Journal of the American Chemical Society, 2021)
Where a SMILES comes first, the peptide text is derived from it. The star is where a group is joined. Cbz = O=C(OCc1ccccc1)*; CH2F = FC*

What follows are compounds tested against BTK (Homo sapiens, UniProt Q06187) (assay: biochemical). Conditions: read-out: BTK inhibition (%).
BTK, sequence (Q06187 402-655 limits assumed): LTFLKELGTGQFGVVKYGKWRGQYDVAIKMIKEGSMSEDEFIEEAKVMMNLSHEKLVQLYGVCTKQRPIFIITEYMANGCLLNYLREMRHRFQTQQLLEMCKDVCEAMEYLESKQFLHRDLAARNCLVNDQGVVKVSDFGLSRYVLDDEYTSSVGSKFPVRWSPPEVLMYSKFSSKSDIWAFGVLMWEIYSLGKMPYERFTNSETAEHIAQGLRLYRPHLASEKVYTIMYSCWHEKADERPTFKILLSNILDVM

| SMILES | inhibition at 10 µM |
| --- | --- |
| C[C@]12CCC(=O)C[C@@H]1CC[C@@H]1[C@@H]2CC[C@]2(C)[C@@H](O)CC[C@@H]12 [PCM-0214865] | -21% |

Same assay, conditions: read-out: BTK inhibition (%), 0.75 uM BTK, […] probe 3l, 15 min preincubation

| SMILES | inhibition at 10 µM |
| --- | --- |
| COc1cc2c[n+](C)c3c4cc5c(cc4ccc3c2cc1OC)OCO5 [PCM-0216452] | 27.8% |
| CN1CCN(Cc2ccc(Nc3ncc(Cl)c(Nc4ccccc4S(=O)(=O)N(C)C)n3)cc2)CC1 [PCM-0215510] | 67.2% |
| Cc1cc(C#N)cc(C)c1Oc1nc(Nc2ccc(C#N)cc2)nc(N)c1Br [PCM-0095562] | 36.6% |
| CCNC1(C(N)=O)CCN(c2ncnc3c2nc(-c2ccccc2Cl)n3-c2ccc(Cl)cc2)CC1 [PCM-0095601] | -17.9% |
| Cc1nc(N(C)C(=O)Cc2ccc(-c3ccccn3)cc2)sc1S(N)(=O)=O [PCM-0215334] | 0.8% |
| O=C(O)C1(Cc2cccc(Nc3nccs3)n2)CCC(Oc2cccc(Cl)c2F)CC1 (stereo not drawn) [PCM-0095334] | 102% |
| Oc1cc2c(cc1O)[C@@H]1c3ccc(O)c(O)c3OC[C@]1(O)C2 [PCM-0094861] | -15.6% |
| CC(C)CCNC(=O)[C@H](CC(C)C)NC(=O)[C@H]1O[C@@H]1C(=O)O [PCM-0215302] | -16.2% |
| Cc1ccc(S(=O)(=O)c2ccc([N+](=O)[O-])o2)cc1 [PCM-0095771] | -10.8% |
| CCOC(=O)c1ccc(O)c(OC)c1 [PCM-0215087] | -7.8% |
| COc1cc2ncnc(Nc3cccc(Cl)c3F)c2cc1OC(=O)N1CCN(C)C[C@H]1C [PCM-0215575] | -19.3% |
| COc1ccc2c(c1)c(CC(=O)O)c(C)n2C(=O)c1ccc(Cl)cc1 [PCM-0216635] | 10.8% |
| CC1(C)CC[C@]2(C(=O)O)CC[C@]3(C)C(=CC[C@@H]4[C@@]5(C)C[C@@H](O)[C@H](O)C(C)(C)[C@@H]5CC[C@]43C)[C@@H]2C1 [PCM-0216611] | 20.1% |
| NC(=O)c1noc([C@H](CCCC2CCCCC2)CC(=O)NO)n1 [PCM-0095693] | 10.1% |
| CC(C)N1CCN(Cc2cnc(-c3cc(-c4cccc5[nH]ccc45)cc4[nH]ncc34)o2)CC1 [PCM-0213407] | 51.7% |
| N#CC(c1ccc(Cl)cc1)c1c(Cl)cc(-n2ncc(=O)[nH]c2=O)cc1Cl (stereo not drawn) [PCM-0086206] | -0.8% |
| C[C@H](CCC(=O)O)[C@H]1CC[C@H]2[C@@H]3C[C@H](O)[C@@H]4C[C@H](O)CC[C@]4(C)[C@H]3CC[C@]12C [PCM-0214678] | 3.9% |
| COC(=O)CNC(=O)C(=O)OC [PCM-0215303] | 3.9% |
| C=C(C)C1CC=C(/C=N/O)CC1 (stereo not drawn) [PCM-0216339] | -2.3% |
| CC(C)N(CCC(C(N)=O)(c1ccccc1)c1ccccn1)C(C)C (stereo not drawn) [PCM-0065027] | 5.4% |
| CC1=C(C(=O)OC(C)C)C(c2cccc([N+](=O)[O-])c2)C(C(=O)OC2CN(C(c3ccccc3)c3ccccc3)C2)=C(N)N1 (stereo not drawn) [PCM-0095544] | 70% |
| C[C@@H](CC[C@@]1(O)O[C@H]2C[C@H]3[C@@H]4CC[C@@H]5C[C@@H](O[C@@H]6O[C@H](CO)[C@H](O)[C@H](O)[C@H]6O[C@@H]6O[C@H](CO)[C@@H](O)[C@H](O)[C@H]6O)CC[C@]5(C)[C@H]4CC[C@]3(C)[C@H]2[C@@H]1C)CO[C@@H]1O[C@H](CO)[C@@H](O)[C@H](O)[C@H]1O [PCM-0216516] | -3.9% |
| CNC(=O)c1ccc(N2C(=S)N(c3cnc(C#N)c(C(F)(F)F)c3)C(=O)C23CCC3)cc1F [PCM-0095458] | -3.1% |

| SMILES | inhibition at 10 µM |
| --- | --- |
| CCCCCC(=O)O[C@]1(C(C)=O)CC[C@H]2[C@@H]3CCC4=CC(=O)CC[C@]4(C)[C@H]3CC[C@@]21C [PCM-0214832] | -23.3% |
| CC(C)[C@H](NC(=O)OCc1ccccc1)C(=O)N[C@@H](C)C(=O)N[C@@H](CC(=O)O)C(=O)CF [PCM-0215591] (Cbz-Val-Ala-Asp-CH2F) | -5.4% |
| O[C@@H](c1cc(C(F)(F)F)nc2c(C(F)(F)F)cccc12)[C@H]1CCCCN1 [PCM-0214801] | -4.7% |
| CCc1c(C(=O)NCCc2ccc(N3CCCCC3)cc2)[nH]c2ccc(Cl)cc12 [PCM-0214697] | 2.3% |
| Clc1ccc(Nc2nnc(Cc3ccncc3)c3ccccc23)cc1 [PCM-0086134] | -14.5% |
| CC(C)n1cnc2c(NCCc3ccc(O)cc3)nc(-c3csc4ccccc34)nc21 [PCM-0095500] | 34.2% |
| CC(C)OC(=O)C1=CN(C(=O)c2ccc(F)c(F)c2)CC(C)(C)c2c1[nH]c1ccccc21 [PCM-0095387] | 3.4% |
| COC(=O)N[C@H](C(=O)N1CCC[C@H]1C(=O)Nc1ccc([C@@H]2CC[C@@H](c3ccc(NC(=O)[C@@H]4CCCN4C(=O)[C@@H](NC(=O)OC)C(C)C)cc3)N2c2ccc(C(C)(C)C)cc2)cc1)C(C)C [PCM-0216056] | 18.5% |
| CC(C)(CNC(=O)c1cccc(-c2noc(C(F)(F)F)n2)c1)c1coc(-c2ccccc2)n1 [PCM-0215836] | -30.9% |
| COc1ccc2c(c1)[C@]1(C[C@H]1c1ccc3c(/C=C/c4ccc(CN5C[C@@H](C)O[C@@H](C)C5)cc4)n[nH]c3c1)C(=O)N2 [PCM-0215815] | 86.9% |
| CCOC(=O)c1cc2ccccc2oc1=O [PCM-0216280] | -16.2% |
| Cc1c(C(=O)N2CCOc3ccc(-c4ccc(N)nc4)cc3C2)ccc(S(C)(=O)=O)c1F [PCM-0215244] | 1.4% |
| COc1cn(-c2ccc(-n3cccn3)cc2F)nc(-c2ccnn2-c2ccccc2)c1=O [PCM-0215765] | 2.3% |
| C/C(=C\C(=O)OCCCCCCCCC(=O)O)C[C@@H]1OC[C@H](C[C@@H]2O[C@H]2[C@@H](C)[C@H](C)O)[C@@H](O)[C@H]1O [PCM-0101899] | 7% |
| CCCc1cc(=O)[nH]c(=S)[nH]1 [PCM-0085981] | 3.1% |
| c1ccc2occc2c1 [PCM-0216211] | 6.2% |
| Cc1ccnc(NS(=O)(=O)c2ccc(N)cc2)n1 [PCM-0086511] | 1.6% |
| COc1ccc(-c2oc3c(CC=C(C)C)c(O[C@@H]4O[C@H](CO)[C@@H](O)[C@H](O)[C@H]4O)cc(O)c3c(=O)c2O[C@@H]2O[C@@H](C)[C@H](O)[C@@H](O)[C@H]2O[C@@H]2OC[C@@H](O)[C@H](O)[C@H]2O)cc1 [PCM-0216511] | -8.5% |
| O=S(=O)(CC1CS1)c1ccc(Oc2ccccc2)cc1 (stereo not drawn) [PCM-0095742] | 20.8% |
| COc1ccc(NS(=O)(=O)c2sc3ccc(Cl)cc3c2C)cc1N1CCNCC1 [PCM-0095497] | -35% |
| COC(=O)CCSCc1ccc(-c2onc(C)c2NC(=O)OC(C)c2ccccc2Cl)cc1 (stereo not drawn) [PCM-0095376] | 20.2% |
| COc1ccc(-c2cc(=O)c3c(OC)c(OC)c(OC)c(OC)c3o2)cc1 [PCM-0086738] | -26.9% |
| COC(=O)[C@@H](N)CCCN=C(N)N[N+](=O)[O-] [PCM-0215172] | 19.6% |

| SMILES | inhibition at 10 µM |
| --- | --- |
| CC(C)c1c2cc(-c3ccnc(NC4CCC(NC5CCOCC5)CC4)n3)ccc2nn1C (stereo not drawn) [PCM-0215782] | 3.4% |
| CC(C)c1cc(C(=O)N2Cc3ccc(CN4CCN(C)CC4)cc3C2)c(O)cc1O [PCM-0095012] | -6.2% |
| C[C@@H]1CC[C@@]2(OC1)O[C@H]1C[C@H]3[C@@H]4CC=C5C[C@@H](O[C@@H]6O[C@H](CO)[C@@H](O[C@@H]7O[C@@H](CO)[C@H](O)[C@H]7O)[C@H](O)[C@H]6O[C@@H]6O[C@@H](C)[C@H](O)[C@@H](O)[C@H]6O)CC[C@]5(C)[C@H]4CC[C@]3(C)[C@H]1[C@@H]2C [PCM-0216403] | -10% |
| Nc1nc(NC2CC2)c2ncn([C@H]3C=C[C@@H](CO)C3)c2n1 [PCM-0086436] | 9.4% |
| CN(C)C/C=C/C(=O)Nc1cc2c(Nc3ccc(F)c(Cl)c3)ncnc2cc1O[C@H]1CCOC1 [PCM-0094907] | 84.8% |
| Nc1cccc(-c2cc3c(Oc4cccc(O)c4)ncnc3[nH]2)c1 [PCM-0095147] | 82.1% |
| COc1ccc2[nH]cc(/C=C3\C(=O)Nc4ccc(NC(=O)CCN5CCCCC5)cc43)c2c1 [PCM-0216653] | 51.7% |
| Cc1ccc(Nc2cc(N[C@@H]3CCCC[C@@H]3N)nnc2C(N)=O)nc1C [PCM-0215730] | 79.3% |
| O=[N+]([O-])c1ccc2c(c1)S(=O)(=O)C=C2 [PCM-0065368] | 40.9% |
| O=C1NC(=O)[C@@H](c2cn3c4c(cccc24)CCC3)[C@@H]1c1c[nH]c2ccccc12 [PCM-0095697] | 29% |
| Cc1c(F)cc(C(=O)NC2CC2)cc1-c1ccc(C(=O)NCC(C)(C)C)cn1 [PCM-0095751] | -14.5% |
| NC(=O)c1[nH]cnc1N [PCM-0214903] | -43.6% |
| Cn1nnnc1SCC1=C(C(=O)O)N2C(=O)[C@@H](NC(=O)[C@H](OC=O)c3ccccc3)[C@H]2SC1 [PCM-0214900] | 8.6% |
| CC(C)(C)NC(=O)[C@H]1CC[C@H]2[C@@H]3CC[C@H]4NC(=O)C=C[C@]4(C)[C@H]3CC[C@]12C [PCM-0214718] | 13.2% |
| CCCCC(=O)N(Cc1ccc(-c2ccccc2-c2nn[nH]n2)cc1)[C@H](C(=O)O)C(C)C [PCM-0090417] | -27.2% |
| O=C(NC(Cc1cc(=O)[nH]c2ccccc12)C(=O)O)c1ccc(Cl)cc1 (stereo not drawn) [PCM-0086359] | 4.7% |
| Nc1ccnc(=O)[nH]1 [PCM-0215139] | -5.4% |
| Cc1nc(-c2cccnc2)sc1C(=O)Nc1ccccc1-c1cn2c(CN3CCOCC3)csc2n1 [PCM-0215454] | 12.4% |
| CCc1cccc2c3c([nH]c12)C(CC)(CC(=O)O)OCC3 (stereo not drawn) [PCM-0094929] | 1.4% |
| CCCCC1C(=O)N(c2ccccc2)N(c2ccccc2)C1=O [PCM-0065475] | -17.2% |
| O=C(O)c1ccc(-n2nc(-c3ccccc3O)nc2-c2ccccc2O)cc1 [PCM-0095168] | 36.6% |
| C=CS(=O)(=O)NC1CCN(C(=O)CNc2cc(I)c(Cl)cc2OC)CC1 [PCM-0215340] | 6.2% |
